Test results: patent publication US20250230172A1 (Vanqua Bio, Inc., priority 2021, published 2025)

Target: T1, GCase (Homo sapiens, UniProt P04062)
T1 construct: endogenous in cells; host or cells: HeLa cells
T1 sequence (P04062 40-536): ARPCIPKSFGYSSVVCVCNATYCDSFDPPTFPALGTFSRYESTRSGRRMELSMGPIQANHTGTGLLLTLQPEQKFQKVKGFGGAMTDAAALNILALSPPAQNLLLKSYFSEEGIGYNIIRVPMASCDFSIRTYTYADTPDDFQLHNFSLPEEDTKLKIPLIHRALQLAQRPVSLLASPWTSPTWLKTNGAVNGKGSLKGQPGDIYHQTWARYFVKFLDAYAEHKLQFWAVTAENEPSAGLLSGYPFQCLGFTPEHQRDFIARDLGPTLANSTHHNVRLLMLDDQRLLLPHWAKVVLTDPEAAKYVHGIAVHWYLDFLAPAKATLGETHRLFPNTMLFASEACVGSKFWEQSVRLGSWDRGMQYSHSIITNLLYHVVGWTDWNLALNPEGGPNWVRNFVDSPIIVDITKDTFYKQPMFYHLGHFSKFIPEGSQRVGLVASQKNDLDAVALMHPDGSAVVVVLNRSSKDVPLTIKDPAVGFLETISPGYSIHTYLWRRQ
Experiment: live cell PFB assay in HELA cells for activation of GCase
Assay type: cell-based
Procedure: Exemplary compounds were evaluated for activation of GCase in a live cell PFB assay in HELA cells (essentially as described in Ysselstein et al., “LRRK2 kinase activity regulates lysosomal glucocerebrosidase in neurons derived from Parkinson's disease patients” Nature Communications (2019) 10:5570). […] EC50 ranges: A: <10 μM; B: >10-50 μM; C: >50-100 μM; D: >100 μM.

Structure (SMILES)	EC50 [µM]
FC(F)Cn1ncc2ncc(N3CC[C@H]4[C@@H]3CCN4c3cccc(C(F)(F)F)n3)nc21 (racemic) [Compound 57, rac-2-[(3aR,6aR)-4-[1-(2,2-difluoroethyl)-1H-pyrazolo[3,4-b]pyrazin-6-yl]-octahydropyrrolo[3,2-b]pyrrol-1-yl]-6-(trifluoromethyl)pyridine]	10 to 50
FC(F)Cn1ncc2ncc(N3CC[C@H]4CN(c5cccc(C(F)(F)F)n5)C[C@H]43)nc21 (racemic) [Compound 59, rac-2-[(3aR,6aR)-1-[1-(2,2-difluoroethyl)-1H-pyrazolo[3,4-b]pyrazin-6-yl]-octahydropyrrolo[3,4-b]pyrrol-5-yl]-6-(trifluoromethyl)pyridine]	10 to 50
FC(F)Cn1ncc2ncc(N3C[C@@H]4CCN(c5cccc(C(F)(F)F)n5)[C@@H]4C3)nc21 (racemic) [Compound 61, rac-2-[(3aR,6aR)-5-[1-(2,2-difluoroethyl)-1H-pyrazolo[3,4-b]pyrazin-6-yl]-octahydropyrrolo[2,3-c]pyrrol-1-yl]-6-(trifluoromethyl)pyridine]	10 to 50
O=C1[C@@H]2CN(c3cccc(C(F)(F)F)n3)C[C@@H]2CN1c1cnc2cnn(CC(F)F)c2n1 (racemic) [Compound 62, rac-(3aR,6aS)-2-[1-(2,2-difluoroethyl)-1H-pyrazolo[3,4-b]pyrazin-6-yl]-5-[6-(trifluoromethyl)pyridin-2-yl]-octahydropyrrolo[3,4-c]pyrrol-1-one]	10 to 50
FC(F)Cn1ncc2ncc(N[C@H]3CC[C@@H]4CN(c5cccc(C(F)(F)F)n5)C[C@@H]4C3)nc21 (single isomer, unassigned) [Compound 70]	< 10
FC(F)Cn1ncc2ncc(N[C@@H]3CC[C@@H]4CN(c5cccc(C(F)(F)F)n5)C[C@@H]4C3)nc21 (single isomer, unassigned) [Compound 71]	10 to 50
FC(F)Cn1ncc2ncc(N[C@H]3CC[C@@H]4CN(c5cccnc5C(F)(F)F)C[C@@H]4C3)nc21 (single isomer, unassigned) [Compound 74]	10 to 50
FC(F)Cn1ncc2ncc(N[C@@H]3CC[C@@H]4CN(c5cccnc5C(F)(F)F)C[C@@H]4C3)nc21 (single isomer, unassigned) [Compound 75]	> 100
Cn1c(-c2ccccc2)c(C(=O)N2CCN3C[C@H](Oc4cccnc4C(F)(F)F)C[C@H]3C2)c2nccnc21 [Compound 27, 3-{[(7R,8aS)-2-{5-methyl-6-phenyl-5H-pyrrolo[2,3-b]pyrazine-7-carbonyl}-octahydropyrrolo[1,2-a]pyrazin-7-yl]oxy}-2-(trifluoromethyl)pyridine]	50 to 100
O=C(c1ccc2cc[nH]c2c1)N1CCN2C[C@H](Oc3cccnc3C(F)(F)F)C[C@H]2C1 [Compound 28, 6-[(7R,8aS)-7-{[2-(trifluoromethyl)pyridin-3-yl]oxy}-octahydropyrrolo[1,2-a]pyrazine-2-carbonyl]-1H-indole]	10 to 50

Results, then the compound that gave them:

EC50 [µM]	Structure (SMILES)
< 10	FC(F)Cn1ncc2ncc(N3CC[C@H]4[C@@H]3CCN4c3cc(C(F)(F)F)ccn3)nc21 (racemic) [Compound 56, rac-2-[(3aR,6aR)-4-[1-(2,2-difluoroethyl)-1H-pyrazolo[3,4-b]pyrazin-6-yl]-octahydropyrrolo[3,2-b]pyrrol-1-yl]-4-(trifluoromethyl)pyridine]
10 to 50	FC(F)Cn1ncc2ncc(N3CC[C@H]4CN(c5cc(C(F)(F)F)ccn5)C[C@H]43)nc21 (racemic) [Compound 58, rac-2-[(3aR,6aR)-1-[1-(2,2-difluoroethyl)-1H-pyrazolo[3,4-b]pyrazin-6-yl]-octahydropyrrolo[3,4-b]pyrrol-5-yl]-4-(trifluoromethyl)pyridine]
10 to 50	FC(F)Cn1ncc2ncc(N3C[C@@H]4CCN(c5cc(C(F)(F)F)ccn5)[C@@H]4C3)nc21 (racemic) [Compound 60, rac-2-[(3aR,6aR)-5-[1-(2,2-difluoroethyl)-1H-pyrazolo[3,4-b]pyrazin-6-yl]-octahydropyrrolo[2,3-c]pyrrol-1-yl]-4-(trifluoromethyl)pyridine]
10 to 50	FC(F)Cn1ncc2ncc(N3CC[C@@H]4CN(c5ccc(C(F)(F)F)cn5)C[C@H]4C3)nc21 (single isomer, unassigned) [Compound 68]
< 10	FC(F)Cn1ncc2ncc(N[C@H]3CC[C@@H]4CN(c5cc(C(F)(F)F)ccn5)C[C@@H]4C3)nc21 (single isomer, unassigned) [Compound 72]
10 to 50	FC(F)Cn1ncc2ncc(N[C@@H]3CC[C@@H]4CN(c5cc(C(F)(F)F)ccn5)C[C@@H]4C3)nc21 (single isomer, unassigned) [Compound 73]
50 to 100	FC(F)Cn1ncc2ncc(N3CCN4C[C@H](Oc5cccnc5C(F)(F)F)C[C@H]4C3)nc21 [Compound 26, 3-{[(7R,8aS)-2-[1-(2,2-difluoroethyl)-1H-pyrazolo[3,4-b]pyrazin-6-yl]-octahydropyrrolo[1,2-a]pyrazin-7-yl]oxy}-2-(trifluoromethyl)pyridine]
< 10	FC(F)Cn1ncc2ncc(N3CC4CC(Oc5cccc(C(F)(F)F)n5)CC4C3)nc21 (stereo not drawn) [Compound 29, 2-({2-[1-(2,2-difluoroethyl)-1H-pyrazolo[3,4-b]pyrazin-6-yl]-octahydrocyclopenta[c]pyrrol-5-yl}oxy)-6-(trifluoromethyl)pyridine]
< 10	FC(F)Cn1ncc2ncc(N3CC4CC(Oc5cc(C(F)(F)F)ccn5)CC4C3)nc21 (stereo not drawn) [Compound 30, 2-({2-[1-(2,2-difluoroethyl)-1H-pyrazolo[3,4-b]pyrazin-6-yl]-octahydrocyclopenta[c]pyrrol-5-yl}oxy)-4-(trifluoromethyl)pyridine]
> 100	FC(F)Cn1ncc2ncc(N3CC4CC(Oc5cccnc5C(F)(F)F)CC4C3)nc21 (stereo not drawn) [Compound 31, 3-({2-[1-(2,2-difluoroethyl)-1H-pyrazolo[3,4-b]pyrazin-6-yl]-octahydrocyclopenta[c]pyrrol-5-yl}oxy)-2-(trifluoromethyl)pyridine]
< 10	FC(F)Cn1ncc2ncc(N[C@@H]3C[C@@H]4CN(c5cccc(C(F)(F)F)n5)C[C@@H]4C3)nc21 [Compound 32, (3aR,5S,6aS)—N-[1-(2,2-difluoroethyl)-1H-pyrazolo[3,4-b]pyrazin-6-yl]-2-[6-(trifluoromethyl)pyridin-2-yl]-octahydrocyclopenta[c]pyrrol-5-amine]
< 10	FC(F)Cn1ncc2ncc(N[C@@H]3C[C@@H]4CN(c5cc(C(F)(F)F)ccn5)C[C@@H]4C3)nc21 [Compound 33, (3aR,5S,6aS)—N-[1-(2,2-difluoroethyl)-1H-pyrazolo[3,4-b]pyrazin-6-yl]-2-[4-(trifluoromethyl)pyridin-2-yl]-octahydrocyclopenta[c]pyrrol-5-amine]
10 to 50	FC(F)Cn1ncc2ncc(N[C@H]3C[C@@H]4CN(c5cccc(C(F)(F)F)n5)C[C@@H]4C3)nc21 [Compound 34, (3aR,5R,6aS)—N-[1-(2,2-difluoroethyl)-1H-pyrazolo[3,4-b]pyrazin-6-yl]-2-[6-(trifluoromethyl)pyridin-2-yl]-octahydrocyclopenta[c]pyrrol-5-amine]
< 10	FC(F)Cn1ncc2ncc(N[C@H]3C[C@@H]4CN(c5cc(C(F)(F)F)ccn5)C[C@@H]4C3)nc21 [Compound 35, (3aR,5R,6aS)—N-[1-(2,2-difluoroethyl)-1H-pyrazolo[3,4-b]pyrazin-6-yl]-2-[4-(trifluoromethyl)pyridin-2-yl]-octahydrocyclopenta[c]pyrrol-5-amine]
